Here are results for 18 compounds from patent US8658675B2, “Pyridin-4-yl derivatives” (Actelion Pharmaceuticals Ltd., priority 2009, dated 2014).

The EC50 is the concentration needed to bring the measured effect to its halfway point.

Some results are limits rather than exact numbers.

For one data set, the system named is circulating lymphocytes. The data set is described as follows: Assessment of in vivo efficacy: circulating lymphocytes after oral administration. Further details: species or system normotensive male Wistar rats. The settings on record: Rattus norvegicus, Lymphocyte; 6 h after oral administration of 10 mg/kg, male Wistar rats, compared to vehicle group; read-out: Lymphocyte counts. The procedure:
The efficacy of the compounds of Formula (I) is assessed by measuring the circulating lymphocytes after oral administration of 3 to 30 mg/kg of a compound of Formula (I) to normotensive male Wistar rats. The animals are housed in climate-controlled conditions with a 12 h-light/dark cycle, and have free access to normal rat chow and drinking water. Blood is collected before and 3, 6 and 24 h after drug administration. Full blood is subjected to hematology using Advia Hematology system (Bayer Diagnostics, Zurich, Switzerland).
All data are presented as mean±SEM. Statistical analyses are performed by analysis of variance (ANOVA) using Statistica (StatSoft) and the Student-Newman-Keuls procedure for multiple comparisons. The null hypothesis is rejected when p<0.05.
Lymphocyte counts 6 h after oral administration have been measured for 23 out of 30 exemplified compounds and are in the range of −42% to −80% with an average of −63%.

A further data set has as its target human S1P1 receptor (Homo sapiens, UniProt P21453). Description: GTPγS assay to determine EC50 values. Type of data set: biochemical. The settings on record: membranes of CHO cells expressing recombinant human S1P1 receptor; 35S-GTPγS binding. The procedure: GTPγS binding assays are performed in 96 well microtiter plates (Nunc, 442587) in a final volume of 200 μl, using membrane preparations of CHO cells expressing recombinant human S1P1 receptor. Assay conditions are 20 mM Hepes (Fluka, 54461), 100 mM NaCl (Fluka, 71378), 5 mM MgCl2 (Fluka, 63064), 0.1% BSA (Calbiochem, 126609), 1 μM GDP (Sigma, G-7127), 2.5% DMSO (Fluka, 41644), […] ^35S-GTPγS (Amersham Biosciences, SJ1320). The pH is 7.4. Test compounds are dissolved and diluted in 100% DMSO and pre-incubated at room temperature for 30 min in 150 μl of the above assay buffer, in the absence of ^35S-GTPγS. After addition of 50 μl of ^35S-GTPγS, the assay is incubated for 1 h at rt. The assay is terminated by transfer of the reaction mixture to a Multiscreen plate (Millipore, MAHFC1H60) using a cell harvester from Packard Biosciences, and the plates are washed with ice-cold 10 mM Na2HPO4/NaH2PO4 (70%/30%), dried, sealed at the bottom and, after addition of 25 μl MicroScint20 (Packard Biosciences, order#6013621), sealed on the top. Membrane-bound ^35S-GTPγS is measured with a TopCount from Packard Biosciences.
EC50 is the concentration of agonist inducing 50% of the maximal specific ^35S-GTPγS binding. Specific binding is determined by subtracting non-specific binding from maximal binding. Maximal binding is the amount of cpm bound to the Multiscreen plate in the presence of 10 μM of S1P. Non-specific binding is the amount of binding in the absence of an agonist in the assay.
Agonistic activities (EC50 values) of all exemplified compounds have been measured.
In general terms: Binding of GTPγS marks nucleotide exchange on a G protein.

Another data set concerns rat trachea rings. Description: Measurement of isometric force development: rat trachea ring constriction. More on the design: species or system Female Wistar rats. The settings on record: for potential to constrict rat trachea rings (comparison in words): compared to closest prior art analogues of WO 2008/029371 or to Example 2; for % trachea constriction at 1 μM: compound at 1 μM, in % of the constriction induced by 50 mM KCl. The procedure: Animals were obtained from RCC Ltd (Füllinsdorf, Switzerland). Female Wistar rats were euthanized by exposure to CO2. The tracheae were excised and rings from the lower segments were prepared. Rings of trachea were suspended in tissue baths (10 mL) containing Krebs-Henseleit buffer of the following composition (mM): NaCl 115; KCl 4.7; MgSO4 1.2; KH2PO4 1.5; CaCl2 2.5; NaHCO3 25; glucose 10. Bathing solution was maintained at 37° C. and aerated with 95% O2/5% CO2 (pH 7.4). A resting force of 2 g (20 mN) was applied to the ring preparation, and changes in force generation were measured using an isometric force recorder (EMKA Technologies Inc, Paris, France). Viability of rings was assessed by exposure to a depolarizing concentration of KCl (50 mM). Contraction of trachea was expressed as a percentage of the response to KCl.
All compounds were prepared as stock solutions of 0.3 mM in pure DMSO. Compounds were added to the bath (10 mL) in a volume of 33 μL to give a final bath concentration of DMSO of 0.33%.
Contraction of trachea was measured for 15 out of 30 exemplified compounds.

Chain of human S1P1 receptor (P21453 whole entry): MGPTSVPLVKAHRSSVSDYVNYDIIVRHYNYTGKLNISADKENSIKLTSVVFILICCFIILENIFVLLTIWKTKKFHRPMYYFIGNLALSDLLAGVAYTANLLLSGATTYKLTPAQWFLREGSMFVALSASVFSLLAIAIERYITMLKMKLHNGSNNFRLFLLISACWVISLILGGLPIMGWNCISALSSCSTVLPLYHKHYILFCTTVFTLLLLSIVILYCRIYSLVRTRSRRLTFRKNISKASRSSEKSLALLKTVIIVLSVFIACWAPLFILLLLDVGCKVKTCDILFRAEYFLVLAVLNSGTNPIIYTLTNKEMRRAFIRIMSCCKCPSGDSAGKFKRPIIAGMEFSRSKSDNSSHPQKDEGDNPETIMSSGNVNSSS

Regarding `CCc1cc(-c2noc(-c3cc(OC)nc(C4CCCC4)c3)n2)cc(C)c1OC[C@H](O)CO` [Example 3, (R)-3-{4-[5-(2-Cyclopentyl-6-methoxy-pyridin-4-yl)-[1,2,4]oxadiazol-3-yl]-2-ethyl-6-methyl-phenoxy}-propane-1,2-diol], the change in vivo at 10 mg/kg with circulating lymphocytes was -63%. Also, the EC50 on human S1P1 receptor stood at 1 nM. In addition, in the data set with rat trachea rings, the “potential to constrict rat trachea rings (comparison in words)” value is listed as “same low potential to constrict rat trachea rings” and the “% trachea constriction at 1 μM” value is under 5%. Regarding `CCc1cc(-c2noc(-c3cc(OC)nc(C4CCCCC4)c3)n2)cc(C)c1OC[C@@H](O)CO` [Example 4, (S)-3-{4-[5-(2-Cyclohexyl-6-methoxy-pyridin-4-yl)-[1,2,4]oxadiazol-3-yl]-2-ethyl-6-methyl-phenoxy}-propane-1,2-diol], the change in vivo at 10 mg/kg in the data set on circulating lymphocytes was -61%. In addition, the EC50 on human S1P1 receptor turned out to be 6.4 nM. Moreover, the “% trachea constriction at 1 μM” value in the data set with rat trachea rings is listed as under 5%. With `CCS(=O)(=O)Nc1c(C)cc(-c2noc(-c3cc(OC)nc(C4CCCC4)c3)n2)cc1Cl` [Example 5, Ethanesulfonic acid {2-chloro-4-[5-(2-cyclopentyl-6-methoxy-pyridin-4-yl)-[1,2,4]oxadiazol-3-yl]-6-methyl-phenyl}-amide], in the data set with circulating lymphocytes, the change in vivo at 10 mg/kg was -66%. In addition, on human S1P1 receptor, the EC50 is 1.8 nM. In the case of `CCc1cc(-c2noc(-c3cc(OC)nc(C4CCCC4)c3)n2)cc(C)c1OC[C@@H](O)CNC(=O)CO` [Example 7, N-((2S)-3-{4-[5-(2-Cyclopentyl-6-methoxy-pyridin-4-yl)-[1,2,4]oxadiazol-3-yl]-2-ethyl-6-methyl-phenoxy}-2-hydroxy-propyl)-2-hydroxy-acetamide], the change in vivo at 10 mg/kg in the data set with circulating lymphocytes was -65%. For the same compound, the EC50 on human S1P1 receptor worked out at 0.6 nM. In addition, in the data set with rat trachea rings, the “potential to constrict rat trachea rings (comparison in words)” value is “markedly reduced potential to constrict rat trachea rings” and the “% trachea constriction at 1 μM” value is recorded as 50%.

`CCc1cc(-c2noc(-c3cc(OC)nc(C(CC)CC)c3)n2)cc(C)c1OC[C@@H](O)CN(C)C(=O)CO` [Example 9, N-[(2S)-3-(2-Ethyl-4-{5-[2-(1-ethyl-propyl)-6-methoxy-pyridin-4-yl]-[1,2,4]oxadiazol-3-yl}-6-methyl-phenoxy)-2-hydroxy-propyl]-2-hydroxy-N-methyl-acetamide]: the EC50 at human S1P1 receptor turned out to be 17.8 nM.

On to `CCC(CC)c1cc(-c2nc(-c3cc(C)c(NS(C)(=O)=O)c(Cl)c3)no2)cc(OC)n1` [Example 11, N-(2-Chloro-4-{5-[2-(1-ethyl-propyl)-6-methoxy-pyridin-4-yl]-[1,2,4]oxadiazol-3-yl}-6-methyl-phenyl)-methanesulfonamide], for which, in the data set on circulating lymphocytes, the change in vivo at 10 mg/kg was -74%. Moreover, the concentration for a half-maximal effect (EC50) on human S1P1 receptor came out at 1.2 nM. Consider `COc1cc(-c2nc(-c3cc(C)c(OC[C@@H](O)CNC(=O)CO)c(Cl)c3)no2)cc(C2CCCC2)n1` [Example 14, N-((2S)-3-{2-Chloro-4-[5-(2-cyclopentyl-6-methoxy-pyridin-4-yl)-[1,2,4]oxadiazol-3-yl]-6-methyl-phenoxy}-2-hydroxy-propyl)-2-hydroxy-acetamide], for which the change in vivo at 10 mg/kg with circulating lymphocytes is -70%. For the same compound, on human S1P1 receptor, the EC50 was determined as 1.1 nM. Turning to `CCc1cc(-c2noc(-c3cc(CCC(C)C)nc(OC)c3)n2)cc(C)c1OC[C@@H](O)CO` [Example 15, (S)-3-(2-Ethyl-4-{5-[2-methoxy-6-(3-methyl-butyl)-pyridin-4-yl]-[1,2,4]oxadiazol-3-yl}-6-methyl-phenoxy)-propane-1,2-diol], on human S1P1 receptor, the EC50 amounted to 7.5 nM. In the case of `COc1cc(-c2nc(-c3cc(C)c(NS(C)(=O)=O)c(Cl)c3)no2)cc(C2CCCCC2)n1` [Example 17, N-{2-Chloro-4-[5-(2-cyclohexyl-6-methoxy-pyridin-4-yl)-[1,2,4]oxadiazol-3-yl]-6-methyl-phenyl}-methanesulfonamide], the change in vivo at 10 mg/kg in the data set on circulating lymphocytes is -80%. On human S1P1 receptor, the EC50 turned out to be 10.2 nM. `CCc1cc(-c2noc(-c3cc(OC)nc(C4CCCCC4)c3)n2)cc(C)c1NS(C)(=O)=O` [Example 20, N-{4-[5-(2-Cyclohexyl-6-methoxy-pyridin-4-yl)-[1,2,4]oxadiazol-3-yl]-2-ethyl-6-methyl-phenyl}-methanesulfonamide]: the change in vivo at 10 mg/kg in the data set with circulating lymphocytes was -67%. The EC50 at human S1P1 receptor is 4.2 nM. Take `CCc1cc(-c2nc(-c3cc(OC)nc(C4CCCC4)c3)no2)cc(C)c1OC[C@H](O)CO` [Example 22, (R)-3-{4-[3-(2-Cyclopentyl-6-methoxy-pyridin-4-yl)-[1,2,4]oxadiazol-5-yl]-2-ethyl-6-methyl-phenoxy}-propane-1,2-diol]: on human S1P1 receptor, the EC50 was found to be 1 nM. As to `CCc1cc(-c2nc(-c3cc(OC)nc(C4CCCC4)c3)no2)cc(C)c1OC[C@@H](O)CNC(=O)CO` [Example 23, N-((2S)-3-{4-[3-(2-Cyclopentyl-6-methoxy-pyridin-4-yl)-[1,2,4]oxadiazol-5-yl]-2-ethyl-6-methyl-phenoxy}-2-hydroxy-propyl)-2-hydroxy-acetamide], the change in vivo at 10 mg/kg in the data set on circulating lymphocytes is -56%. Besides, the EC50 on human S1P1 receptor amounted to 0.4 nM. In the case of `CCc1cc(-c2nc(-c3cc(OC)nc(C4CCCC4)c3)no2)cc(C)c1OC[C@H](O)CNC(=O)CO` [Example 24, N-((2R)-3-{4-[3-(2-Cyclopentyl-6-methoxy-pyridin-4-yl)-[1,2,4]oxadiazol-5-yl]-2-ethyl-6-methyl-phenoxy}-2-hydroxy-propyl)-2-hydroxy-acetamide], on human S1P1 receptor, the EC50 was found to be 1.6 nM. The same measure, in the same setting: the figure for `CCc1cc(-c2nnc(-c3cc(OC)nc(C4CCCC4)c3)o2)cc(C)c1OC[C@H](O)CO` [Example 26, (R)-3-{4-[5-(2-Cyclopentyl-6-methoxy-pyridin-4-yl)-[1,3,4]oxadiazol-2-yl]-2-ethyl-6-methyl-phenoxy}-propane-1,2-diol] is 4 nM. As for `CCc1cc(-c2nnc(-c3cc(OC)nc(C4CCCC4)c3)o2)cc(C)c1OC[C@@H](O)CNC(=O)CO` [Example 27, N-((2S)-3-{4-[5-(2-Cyclopentyl-6-methoxy-pyridin-4-yl)-[1,3,4]oxadiazol-2-yl]-2-ethyl-6-methyl-phenoxy}-2-hydroxy-propyl)-2-hydroxy-acetamide], in the data set with circulating lymphocytes, the change in vivo at 10 mg/kg is -54%. The EC50 on human S1P1 receptor was 1.7 nM. Take `CCc1cc(-c2nnc(-c3cc(OC)nc(C4CCCC4)c3)o2)cc(C)c1OC[C@H](O)CNC(=O)CO` [Example 28, N-((2R)-3-{4-[5-(2-Cyclopentyl-6-methoxy-pyridin-4-yl)-[1,3,4]oxadiazol-2-yl]-2-ethyl-6-methyl-phenoxy}-2-hydroxy-propyl)-2-hydroxy-acetamide]: the EC50 on human S1P1 receptor was determined as 2.3 nM. On to `COc1cc(-c2nc(-c3cc(C)c(OC[C@@H](O)CO)c(Cl)c3)no2)cc(C2CCCCC2)n1` [Example 29, (S)-3-{2-Chloro-4-[5-(2-cyclohexyl-6-methoxy-pyridin-4-yl)-[1,2,4]oxadiazol-3-yl]-6-methyl-phenoxy}-propane-1,2-diol], for which the change in vivo at 10 mg/kg with circulating lymphocytes was -62%. Also, on human S1P1 receptor, the EC50 came to 4 nM.

Regarding `CCc1cc(-c2noc(-c3cc(CCC(C)C)nc(OC)c3)n2)cc(C)c1NS(C)(=O)=O` [Example 30, N-(2-Ethyl-4-(5-(2-isopentyl-6-methoxypyridin-4-yl)-1,2,4-oxadiazol-3-yl)-6-methylphenyl)methanesulfonamide], on human S1P1 receptor, the EC50 amounted to 5.6 nM.
